The text below walks through data of paper PMC9401491, “The Novel Nucleoside Analogue ProTide NUC-7738 Overcomes Cancer Resistance Mechanisms In Vitro and in a First-In-Human Phase I Clinical Trial” (Clinical Cancer Research, 2021).

Molecules are shown by their SMILES. Where two headings read alike, the source gives them in different places.

For one data set, the system named is CAKI-1. In words: MTT cell viability, CAKI-1. The data set is classed as cell-based. The settings on record: Homo sapiens, CAKI-1, 48 h. As to the method:
(§1) Cells (10^4) were seeded into 96-well plates and then treated with NUC-7738 (lot 5132/E00393/119) or 3′-dA (cordycepin, catalog no. C3394, lot 067M4182, Sigma) for 48 hours. One and a half milligrams per milliliter MTT (catalog no. M6494, Invitrogen) in a 1:1 ratio was added to cell culture media. After a 2-hour incubation at 37°C, media was removed and 70 μl of isopropanol was added. Optical densities at 570 nm were measured using POLARstar Omega plate reader. Readouts were normalized and IC50 values were calculated using a nonlinear regression model in Graphpad prism (v8.3.0). Each biological replicate (at least 3) was performed in 4 technical replicates to calculate the average IC50 value. To measure apoptosis, the Guava NexinReagent (Luminex Corp.) was used following manufacturer's instructions. Fluorescence staining was measured with an automated 96-well Guava easyCyte Flow Cytometer (Luminex Corp.).

Another data set relates to NCI-786. The data set is described as follows: MTT cell viability, NCI-786. The data set is classed as cell-based. The following applies: 48 h. The protocol: as §1
In a further data set the test system is renal cancer cell lines. The data set is described as follows: siRNA HINT1 knockdown in renal cancer cell lines. The data set is classed as cell-based. The protocol: (§2) Cells were transfected with stealth siRNA (catalog no. HSS104782, catalog no. HSS104784, catalog no. HSS179235; ThermoFisher) targeting HINT-1 using Lipofectamine RNAiMAX (Invitrogen) following the manufacturer's protocol. At 48 hours posttransfection, cells were treated and cell viability was measured 96 hours posttransfection as described above. Samples for Western blot analysis were harvested 48 hours posttransfection. For gene-depletion experiments, approximately 4 × 10^5 HAP1 cells were seeded per well in a 6-well plate and grown to approximately 50% confluency. After 24 hours, cells were transfected with lentiCRISPR v2 plasmid (GenScript) containing a guide RNA (gRNA) targeting gene of interest using Turbofectin (catalog no. TF81001, OriGene) according to manufacturer's instruction. The following sequences were used: HINT-1 CRISPR gRNA 2 ([…]) and NUDT2 CRISPR gRNA 2 ([…]). At 24 hours posttransfection, positively transfected cells were selected using […] puromycin for 72 hours. After selection, surviving colonies were expanded and used for downstream analysis. For clonal selection, clones were selected using limited dilution and expanded into a 6-well plate for Western blot screening.

On the set-up of data set [1]: method as in PMID 22833171, PMID 24419340. The following applies: rat serum; cited from earlier work.
The next data set deals with ACHN. The data set is described as follows: MTT cell viability, ACHN. The data set is classed as cell-based. The following applies: Homo sapiens, 48 h. As to the method:
as §1

A further data set deals with 501MEL. The data set is described as follows: MTT cell viability, 501MEL. The data set is classed as cell-based. The settings on record: 48 h. The protocol:
as §1

Another data set relates to AGS. In words: MTT cell viability, AGS. The data set is classed as cell-based. The following applies: Homo sapiens, 48 h. The protocol: as §1
The next data set has as its system cancer cell lines. In words: IC50 across a wide set of cancer cell lines. The data set is classed as cell-based. The protocol:
as §1

Data set [2] deals with Gastric or cervical cancer cells. The data set is described as follows: Apoptosis by cleaved PARP Western blot. The data set is classed as cell-based. The settings on record: 50 and 100 μmol/L, 24 hours. As to the method:
as §1
Cells were harvested and lyzed using RIPA lysis and extraction buffer (Thermo Scientific) following manufacturer's protocol. Twenty to 30 μg of total protein lysates was loaded on Mini-PROTEAN TGX precast gels (Bio-Rad). Separated proteins were transferred to a polyvinylidene difluoride (PVDF) membrane using Trans-Blot Turbo Transfer System (Bio-Rad) followed by incubation with primary and horseradish peroxidase (HRP)–conjugated secondary antibodies [anti-mouse, catalog no. […]
A general note: A western blot detects proteins with antibodies after separation by electrophoresis.

A further data set has as its system Tera-1. In words: MTT cell viability, Tera-1. The data set is classed as cell-based. As to the method: as §1
For the next data set, the system named is HAP1 cells. In words: MTT cell viability, HAP1 cells. The data set is classed as cell-based. The settings on record: Homo sapiens. The protocol: as §1
Data set [3] can be described thus: NuTide:701 first-in-human phase I study. The data set is classed as in vivo. As to the method:
A Safety Study of NUC-7738 in Patients with Advanced Solid Tumours or Lymphoma, ClinicalTrials number: NCT03829254. Approved by Oxford C Ethics Committee ref 18/SC/0628.
This study is currently ongoing at three centers in the United Kingdom: Edinburgh, Newcastle, and Oxford. As of June 1, 2021, 28 patients with advanced cancers have been enrolled and received escalating doses of 14–900 mg/m^2 (intravenous infusion from 30–120 minutes) once weekly until dose-limiting toxicity or disease progression occurs. Intrapatient dose escalation ensures those starting at lower dose levels of NUC-7738 are continuously moved to higher doses once safety has been established. The most common cancers to be included are immunotherapy-resistant melanoma (n = 8), colorectal cancer (n = 3), and gastric and lung cancer (n = 2 each). […] A posttreatment biopsy was taken from a patient with melanoma and compared with their archived specimen collected prior to enrolling in the clinical trial. […] Transcriptional profiling of the specimens using RNA-seq identified more than 1,069 genes which were at least 2-fold differentially expressed after treatment with NUC-7738 (Fig. 6C and Supplementary Fig. S6A–C).

Another data set deals with A498. In words: MTT cell viability, A498. The data set is classed as cell-based. The settings on record: Homo sapiens, A498, 48 h. The protocol: as §1
A further data set has as its system HINT1 KO HAP1 cells. The data set is described as follows: Sensitivity of HINT1 CRISPR/Cas9 knockout HAP1 cells. The data set is classed as cell-based, human. The following applies: HAP1 polyclonal and clonal HINT1 KO vs WT. As to the method: as §2
HAP1 cells were seeded at a density of 10,000 cells per well in 6-well plates and indicated drug concentrations were added. […]

For `C[C@H](NP(=O)(OC[C@@H]1C[C@@H](O)[C@H](n2cnc3c(N)ncnc32)O1)Oc1ccccc1)C(=O)OCc1ccccc1` (stereo partly drawn) [NUC-7738, 3′-deoxyadenosine-5′-O-phenyl-(benzyloxy-L-alaninyl)-phosphate], the IC50 with CAKI-1 was 33 µM; with NCI-786, 49.5 µM; in the data set on ACHN, 54.7 µM; in the data set with 501MEL, 10.9 µM; in the data set with AGS, 11.2 µM; in the data set with cancer cell lines (read-out: IC50 in the low μM range), below 10 µM. In addition, the IC50 amounted to 18.8 µM in the data set on cancer cell lines (read-out: mean IC50); 4.36 µM in the data set with Tera-1 (48 h); 7.32 µM in the data set with HAP1 cells (HAP1, 48 h); 7.6 µM in the data set on HAP1 cells (HAP1, read-out: IC50 concentration used for RNA-seq); 48.5 µM in the data set on A498. Also, the “sensitivity after HINT1 depletion to minimal residual levels” value in the data set with renal cancer cell lines is “no difference in sensitivity”. In [1], the half-life in serum entry is “less than 2 minutes”. For the same molecule, in [2], the “apoptotic cell death, cleaved PARP-1” value is “induced apoptotic cell death”. In addition, the “sensitivity to NUC-7738 compared with 3′-dA” value with Tera-1 (Tera-1 teratocarcinoma) was “more than 40 fold”. For the same molecule, the IC90 in the data set on HAP1 cells (HAP1, 48 h) was determined as 54.2 µM; in the data set with HAP1 cells (HAP1, read-out: IC90 concentration used for RNA-seq) it was 125 µM. The tolerability result in data set [3] (patients with advanced cancers, 14–900 mg/m^2 iv once weekly) is reported as “well tolerated with no dose-limiting toxicities reported”. Moreover, the “plasma PK profile” value in data set [3] (patients, escalating doses) was “dose-proportional increase in Cmax and AUC”. Besides, the “sensitivity after depletion of HINT1” value in the data set with HINT1 KO HAP1 cells is listed as “markedly reduced sensitivity”.
